Laboratory results reported in ChEMBL document CHEMBL2086257, “Rhododendric acid A, a new ursane-type PTP1B inhibitor from the endangered plant Rhododendron brachycarpum G. Don” (Bioorg Med Chem Lett, 2012).

Molecular target: T1, Tyrosine-protein phosphatase non-receptor type 1 (Homo sapiens, UniProt P18031)
T1 sequence (P18031 whole entry): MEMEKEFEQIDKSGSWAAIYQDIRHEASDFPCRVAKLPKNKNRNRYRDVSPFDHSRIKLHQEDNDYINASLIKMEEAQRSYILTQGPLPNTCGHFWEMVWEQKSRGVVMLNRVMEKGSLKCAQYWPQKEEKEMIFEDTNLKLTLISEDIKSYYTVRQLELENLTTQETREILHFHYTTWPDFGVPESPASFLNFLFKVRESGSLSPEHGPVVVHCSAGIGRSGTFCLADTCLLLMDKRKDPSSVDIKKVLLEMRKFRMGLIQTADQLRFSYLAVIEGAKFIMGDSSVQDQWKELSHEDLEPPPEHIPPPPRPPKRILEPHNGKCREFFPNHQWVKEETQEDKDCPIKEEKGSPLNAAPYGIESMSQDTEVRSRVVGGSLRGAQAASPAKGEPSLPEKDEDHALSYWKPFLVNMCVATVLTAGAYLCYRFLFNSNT
Test: Inhibition of human recombinant PTP1B using p-nitrophenyl phosphate as substrate assessed as p-nitrophenol release after 30 mins

SMILES | IC50 [µM]
C=C1CC[C@]2(C(=O)O)CC[C@]3(C)C(=CC[C@@H]4[C@@]5(C)C[C@@H](O)[C@@H](O)[C@@](C)(CO)[C@@H]5CC[C@]43C)[C@@H]2[C@H]1C | 17.4
C=C1CC[C@]2(C(=O)O)CC[C@]3(C)C(=CC[C@@H]4[C@@]5(C)C[C@@H](O)[C@H](O)[C@@](C)(CO)[C@@H]5CC[C@]43C)[C@@H]2[C@H]1C [ACTINIDIC ACID] | 18
C[C@H]1[C@H](C)CC[C@]2(C(=O)O)CC[C@]3(C)C(=CC[C@@H]4[C@@]5(C)C[C@@H](O)[C@H](O)C(C)(C)[C@@H]5CC[C@]43C)[C@H]12 [COROSOLIC ACID] | 7
C=C1CC[C@]2(C(=O)O)CC[C@]3(C)C(=CC[C@@H]4[C@@]5(C)CC[C@H](O)[C@@](C)(CO)[C@@H]5CC[C@]43C)[C@@H]2[C@H]1C [RHODODENDRIC ACID A] | 6.3

More lines, now with the values ahead:

IC50 [µM] | SMILES
4 | CCCCCCCCCCCCCCCC(=O)C1=C(O)[C@@H](CO)OC1=O
7.4 | C[C@H]1[C@H](C)CC[C@]2(C(=O)O)CC[C@]3(C)C(=CC[C@@H]4[C@@]5(C)CC[C@H](O)[C@@](C)(CO)[C@@H]5CC[C@]43C)[C@H]12
20.1 | C[C@@H]1CC[C@]2(C(=O)O)CC[C@]3(C)C(=CC[C@@H]4[C@@]5(C)CC[C@H](O)[C@@](C)(CO)[C@@H]5CC[C@]43C)[C@@H]2[C@]1(C)O [ROTUNDIC ACID]
